Patent US20250027863A1, “METHOD OF CHARACTERIZATION OF RELEASE OF POORLY SOLUBLE MATERIALS AND UPTAKE IN COMPLEX LIQUIDS” (Zennova LLC, priority 2021, published 2025)

Experiment: MCRR in vitro release test of ibuprofen solution (flow medium) to external medium
Assay type: physicochemical

## CC(C)Cc1ccc(C(C)C(=O)O)cc1 (centres unmarked) [ibuprofen]
Exposure time in seconds, 15-300 seconds
  slope of ln (1-fraction released) vs. the exposure time: −0.0102
Ibuprofen solution in 25 mM phosphate buffer as flow medium, exposure times up to 300 seconds (test time 291.3 minutes), 20° C, triplicate
  percent released: ~100%
